Literature values as cited in patent publication US20200237920A1, “STABLE INJECTABLE PHARMACEUTICAL COMPOSITION OF NEUROKININ 1 RECEPTOR ANTAGONIST AND PROCESS FOR PREPARATION THEREOF” (PHARMATHEN S.A., priority 2012, published 2020).

Legend:
[1] = system: serotonin, dopamine or corticosteroid receptors

For C[C@@H](O[C@H]1OCCN(Cc2n[nH]c(=O)[nH]2)[C@H]1c1ccc(F)cc1)c1cc(C(F)(F)F)cc(C(F)(F)F)c1 [Aprepitant], the “affinity for serotonin, dopamine or corticosteroid receptors (in words)” value [1] is given as “little or no affinity”.
In the case of CNC[C@H](O)[C@@H](O)[C@H](O)[C@H](O)CO.CNC[C@H](O)[C@@H](O)[C@H](O)[C@H](O)CO.C[C@@H](O[C@H]1OCCN(Cc2nn(P(=O)(O)O)c(=O)[nH]2)[C@H]1c1ccc(F)cc1)c1cc(C(F)(F)F)cc(C(F)(F)F)c1 [Fosaprepitant Dimeglumine], the “solubility in water (in words)” value is given as “freely soluble in water”.
